The values below come from patent US20260317319A1, “NOVEL ERGOLINES AND METHODS OF TREATING MOOD DISORDERS” (Gilgamesh Pharma Inc., priority 2023, published 2026).

Like-named read-outs stand apart in the source and are kept apart here.

In series [1] the target is T1, 5-HT2A receptor (Homo sapiens, UniProt P28223). Kind of series: cell-based. The conditions noted are these: beta-arrestin recruitment; for Emax: agonist, max dose, read-out: 5-HT2A Arrestin % Act @ Max Dose. The class given is cell-based. In outline: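 Agonist activity expressed as percent of maximal control ligand signal after vehicle subtraction, from chemiluminescence (RLU). Cells carry ProLink-tagged 5-HT2A plus β-arrestin fused to β-gal deletion mutant; ligand-driven arrestin binding restores β-galactosidase activity (PathHunter). Cells pre-incubated at 37° C.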
T1 sequence (P28223 whole entry, the tested form may be a part): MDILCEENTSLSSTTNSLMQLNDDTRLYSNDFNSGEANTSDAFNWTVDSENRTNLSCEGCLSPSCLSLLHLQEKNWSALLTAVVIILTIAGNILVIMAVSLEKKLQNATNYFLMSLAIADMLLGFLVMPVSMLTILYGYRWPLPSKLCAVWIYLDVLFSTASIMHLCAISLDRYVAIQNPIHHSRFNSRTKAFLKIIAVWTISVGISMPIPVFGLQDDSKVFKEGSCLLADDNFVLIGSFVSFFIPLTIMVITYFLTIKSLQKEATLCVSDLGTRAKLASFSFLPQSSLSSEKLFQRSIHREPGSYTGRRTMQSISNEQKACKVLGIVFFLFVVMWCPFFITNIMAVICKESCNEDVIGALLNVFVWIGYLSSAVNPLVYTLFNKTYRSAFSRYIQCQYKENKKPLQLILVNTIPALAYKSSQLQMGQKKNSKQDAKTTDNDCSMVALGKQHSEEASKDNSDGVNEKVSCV
Background: Activated receptors often draw arrestin, which recruitment assays turn into a signal.

Series [2] in a line: in vitro. The class given is in vitro ADME, rat. An excerpt:
RLM Stability Pooled RLM from male Sprague-Dawley rats (Xenotech R1000) were used.

Series [3] relates to C57BL/6 mice. The experiment in a line: Mouse head twitch response (HTR) assay (observer-counted). The class given is in vivo. The conditions noted are these: SC; for HTR at most efficacious dose (bound): 20 min. The protocol:
Agonists of the 5-HT2A receptor are well known to induce this effect in rodents and the potency of this HTR is correlated with hallucinogenic potency in humans.
Animals. Adult male C57BL/6 mice, aged 6-8 weeks (body weight 20-25 g) were used in this experiment. Animals were housed under controlled temperatures and 12-hour light/dark cycles (lights on between 07:00-19:00 h), with ad libitum food and water. This study was carried out in strict accordance with the requirements of the Committee for the Purpose of Control and Supervision of Experiments on Animals (CPCSEA), India. All efforts were made to minimize suffering.
Procedure. Mice were administered one dose of the drug and immediately placed into a small open field for behavioral observation. Animals were observed continuously for 20 mins and the number of head twitches (HTs) were counted by an observer blind to the treatment condition.
Statistical Analysis. The data points shown are the mean±standard error of the mean (SEM). Analysis was performed using GraphPad Prism 6. Curves were fit using a non-linear gaussian distribution to calculate ED50 and Emax values.
Additional disclosed compounds were tested in the mouse head twitch response (HTR) assay according to the procedure described in Example 57 (administered SC). […] Lastly, compounds with much larger benzyl and phenethyl substituents on the amine nitrogen (e.g., 10 and 11) were low efficacy in this assay, consistent with their bias toward arrestin signaling (see Example 55).

In series [4] the target is T2, 5-HT1A receptor (Homo sapiens, UniProt P08908).
T2 construct: expressed in transfected cells; host or cells: CHO cells, stably transfected
T2 sequence (P08908 1-422): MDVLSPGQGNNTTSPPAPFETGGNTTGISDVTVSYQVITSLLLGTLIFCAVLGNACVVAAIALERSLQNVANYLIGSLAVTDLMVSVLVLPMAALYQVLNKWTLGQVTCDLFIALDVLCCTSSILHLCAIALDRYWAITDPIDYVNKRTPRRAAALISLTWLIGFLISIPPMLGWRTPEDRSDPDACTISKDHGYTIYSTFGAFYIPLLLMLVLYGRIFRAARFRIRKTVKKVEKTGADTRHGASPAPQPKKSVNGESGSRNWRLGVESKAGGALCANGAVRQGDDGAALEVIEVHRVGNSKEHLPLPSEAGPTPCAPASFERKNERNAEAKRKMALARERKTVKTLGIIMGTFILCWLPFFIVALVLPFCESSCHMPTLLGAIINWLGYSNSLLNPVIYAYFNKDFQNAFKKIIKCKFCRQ
The experiment in a line: cell-based. The settings on record: agonist, Ca2+ flux; for Emax: CHO, CHO cells with Gα15, max dose, read-out: 5-HT1A % Act @ Max Dose. In outline: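 Using HEK293 lines for the 5-HT2 subtypes and Gα15-coupled CHO cells for 5-HT1A, compounds were tested as agonists. Fluorescent Ca2+ signal followed dye loading (Fluo-4 Direct, 2.5 mM final probenecid, 50 min, 37 °C).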

The target of series [5] is T1, 5-HT2A receptor. Kind of series: cell-based. The class given is cell-based. Further details: expressed in transfected cells; host or cells: HEK293, stably transfected. The settings on record: Ca2+ flux; for Emax: HEK293, agonist, HEK293, max dose, read-out: 5-HT2A % Act @ Max Dose. The gist of the method:
(§1)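 FLIPR Tetra fluorescence read-out of calcium flux after compound addition. Receptor-expressing stable lines were used (HEK293 for 2A/2B; CHO with Gα15 for 1A), dye-loaded with Fluo-4 Direct and 2.5 mM final probenecid, 50 min at 37 °C.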
For orientation: Calcium assays in cells follow changes in intracellular calcium, usually with a dye or a luminescent sensor.

The target in series [6] is T3, 5-HT2C receptor (Homo sapiens, UniProt P28335).
T3 sequence (P28335 33-458): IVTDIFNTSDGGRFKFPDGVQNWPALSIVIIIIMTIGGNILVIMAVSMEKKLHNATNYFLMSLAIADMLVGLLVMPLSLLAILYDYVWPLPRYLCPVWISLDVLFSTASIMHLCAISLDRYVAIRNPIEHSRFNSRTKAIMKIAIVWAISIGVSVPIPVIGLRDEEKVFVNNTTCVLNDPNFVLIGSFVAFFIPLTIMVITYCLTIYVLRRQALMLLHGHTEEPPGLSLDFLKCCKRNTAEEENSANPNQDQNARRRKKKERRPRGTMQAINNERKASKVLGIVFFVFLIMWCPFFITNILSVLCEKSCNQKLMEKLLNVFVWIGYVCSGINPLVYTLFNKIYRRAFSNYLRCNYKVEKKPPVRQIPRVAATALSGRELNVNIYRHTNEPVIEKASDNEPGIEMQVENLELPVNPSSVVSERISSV
Kind of series: cell-based. The settings on record: read-out: 5-HT2C % Act @ Max Dose.

Series [7] in a line: in vitro. The class given is in vitro ADME, mouse. An excerpt:
MLM Stability Pooled MLM from male CD-1 mice (BIOIVT M00501) were used.

Series [8] deals with T4, 5-HT2B receptor (Homo sapiens, UniProt P41595).
T4 construct: expressed in transfected cells; host or cells: HEK293, stably transfected
T4 sequence (P41595 whole entry): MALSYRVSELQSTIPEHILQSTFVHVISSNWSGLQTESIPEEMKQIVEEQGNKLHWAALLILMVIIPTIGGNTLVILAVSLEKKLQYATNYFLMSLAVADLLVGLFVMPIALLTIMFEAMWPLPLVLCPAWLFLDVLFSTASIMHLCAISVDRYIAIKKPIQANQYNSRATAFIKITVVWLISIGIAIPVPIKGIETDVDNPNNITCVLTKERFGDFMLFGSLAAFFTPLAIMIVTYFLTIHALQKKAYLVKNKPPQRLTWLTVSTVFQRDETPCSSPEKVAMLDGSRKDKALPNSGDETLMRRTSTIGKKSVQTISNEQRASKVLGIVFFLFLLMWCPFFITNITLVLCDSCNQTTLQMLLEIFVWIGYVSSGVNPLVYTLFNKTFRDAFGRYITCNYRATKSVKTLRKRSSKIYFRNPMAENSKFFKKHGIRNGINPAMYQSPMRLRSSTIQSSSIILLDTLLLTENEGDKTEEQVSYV
Kind of series: cell-based. The class given is cell-based. The conditions noted are these: for Emax: HEK293, agonist, HEK293, max dose, read-out: 5-HT2B % Act @ Max Dose. The gist of the method:
as §1

Series [9] can be described thus: in vitro. The class given is in vitro ADME, human.
Series [10] concerns the target T1, 5-HT2A receptor. The experiment in a line: biochemical. Details: expressed in transfected cells; host or cells: HEK293, stably transfected. The settings on record: [3H]ketanserin 1 nM; HEK293 stable cell line; 1 h, 25 °C. The class given is binding. The gist of the method: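 Values reflect [^3H]ketanserin binding competition. Assay conditions were adapted from the literature.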

The target of series [11] is T4, 5-HT2B receptor. The experiment in a line: 5-HT2B receptor radioligand binding ([3H]LSD). The settings on record: read-out: 5-HT2B Receptor Ki.
[12] abbreviates: agonist, Ca2+ flux, Eurofins DiscoverX protocol, max dose.

Regarding `CC[C@@H](C)NC(=O)[C@@H]1C=C2c3cccc4[nH]cc(c34)C[C@H]2N(CC)C1` [Compound 5, (6aR,9R)—N—((R)-sec-butyl)-7-ethyl-4,6,6a,7,8,9-hexahydroindolo[4,3-fg]quinoline-9-carboxamide], the Emax turned out to be 106% in series [1]; 108% in series [4]; 103% in [5]; 114% in series [6] (setting [12]); 84.8% in series [8] (Ca2+ flux). In addition, in series [1], the “5-HT2A arrestin agonist class” value was “full agonists”. The “stability in RLM” value in series [2] was “much lower stability (higher clearance)”. In addition, the “HTR at most efficacious dose (bound)” value in [3] is over 15 HTR. The “stability in MLM” value in series [7] is listed as “much lower stability (higher clearance)”. The “stability in HLM” value in series [9] is listed as “much lower stability (higher clearance)”.

With `CCC[C@@H](C)NC(=O)[C@@H]1C=C2c3cccc4[nH]cc(c34)C[C@H]2N(CCC)C1` [Compound 7, (6aR,9R)—N—((R)-pentan-2-yl)-7-propyl-4,6,6a,7,8,9-hexahydroindolo[4,3-fg]quinoline-9-carboxamide], the Emax came out at 110% in series [1]; 107% in series [4]; 94.5% in [5]; 115% in series [6] (setting [12]); 94.8% in series [8] (Ca2+ flux). Besides, in [1], the “5-HT2A arrestin agonist class” value is “full agonists”. In series [2], the “stability in RLM” value is reported as “much lower stability (higher clearance)”. Moreover, the “half-life (t1/2)” value in series [2] (RLM (male Sprague-Dawley) 0.50 mg/mL, NADPH 1 mM, 1 μM compound, pH 7.4, 37° C., 60 min) is 1.612 min; in series [7] (MLM (male CD-1) 0.50 mg/mL, NADPH 1 mM, 1 μM compound, pH 7.4, 37° C., 60 min), 0.541 min; in [9] (HLM 0.50 mg/mL, NADPH 1 mM, 1 μM compound, pH 7.4, 37° C., 60 min), 1.65 min. The “HTR at most efficacious dose (bound)” value in [3] was over 15 HTR. For the same compound, the “stability in MLM” value in series [7] was “much lower stability (higher clearance)”. In addition, the “selectivity for 5-HT2A over 5-HT2B” value in series [8] (functional, compared to closest N-methyl counterparts Int8, Int11, Int17) is “more selective for 5-HT2A over 5-HT2B”. Moreover, in series [9], the “stability in HLM” value is listed as “much lower stability (higher clearance)”.

As a reminder, the Ki is the dissociation constant of the complex between target and ligand, obtained from inhibition or displacement. As usually defined, the EC50 is the concentration at which the effect is half-maximal. `CCN(CC)C(=O)[C@@H]1C=C2c3cccc4[nH]cc(c34)C[C@H]2N(CC2CCCCC2)C1` [Compound 89, (6aR,9R)-7-(cyclohexylmethyl)-N,N-diethyl-4,6,6a,7,8,9-hexahydroindolo[4,3-fg]quinoline-9-carboxamide]: the microsomal CLint came out at 244 µL/min/mg in series [2] (rat, microsomes, RLM (male Sprague-Dawley) 0.50 mg/mL, NADPH 1 mM, 1 μM compound, pH 7.4, 37° C., 60 min, read-out: Intrinsic clearance (Clint)); 572 µL/min/mg in series [7] (mouse, microsomes, MLM (male CD-1) 0.50 mg/mL, NADPH 1 mM, 1 μM compound, pH 7.4, 37° C., 60 min, read-out: Intrinsic clearance (Clint)); 104 µL/min/mg in series [9] (human, microsomes, HLM 0.50 mg/mL, NADPH 1 mM, 1 μM compound, pH 7.4, 37° C., 60 min, read-out: Intrinsic clearance (Clint)). In addition, the half-life in series [2] (rat, microsomes, RLM (male Sprague-Dawley) 0.50 mg/mL, NADPH 1 mM, 1 μM compound, pH 7.4, 37° C., 60 min, read-out: half-life (t1/2)) was 5.7 min; in series [7] (mouse, microsomes, MLM (male CD-1) 0.50 mg/mL, NADPH 1 mM, 1 μM compound, pH 7.4, 37° C., 60 min, read-out: half-life (t1/2)), 2.4 min; in series [9] (human, microsomes, HLM 0.50 mg/mL, NADPH 1 mM, 1 μM compound, pH 7.4, 37° C., 60 min, read-out: half-life (t1/2)), 13.3 min. Moreover, the Ki in series [10] came out at 0.00167 µM; in series [11] it was 0.00967 µM. For the same compound, the Emax was 84.4% in [4], 51.8% in series [5] and 11.5% in series [8] (Ca2+ flux). For the same compound, the EC50 was over 100 µM in series [4] (CHO cells with Gα15); 0.839 µM in series [5] (agonist, HEK293); over 10 µM in series [8] (agonist, Ca2+ flux, HEK293).

In the case of `CCC(CC)NC(=O)[C@@H]1C=C2c3cccc4[nH]cc(c34)C[C@H]2N(C)C1` [Int14], the Emax in series [1] was determined as 44.4%; in series [4], 102%; in series [5], 93.3%; in series [6], 99.1%; in [8] (Ca2+ flux), 9.84%. Further, the “5-HT2A arrestin agonist class” value in series [1] is reported as “partial agonists”. Further, the “half-life (t1/2)” value in [2] (rat, microsomes, pH 7.4) is 37.988 min; in series [7] (mouse, microsomes, pH 7.4), 6.07 min; in [9] (human, microsomes, pH 7.4) it was 17.593 min. Further, the “HTR at most efficacious dose (bound)” value in [3] is on record as under 15 HTR.

On to `CCC[C@@H](C)NC(=O)[C@@H]1C=C2c3cccc4[nH]cc(c34)C[C@H]2N(C)C1` [Int17], for which the Emax in [1] worked out at 38.8%; in [4] it was 113%; in series [5], 91.5%; in [6], 102%; in series [8] (Ca2+ flux), 25.5%. In addition, in series [1], the “5-HT2A arrestin agonist class” value is on record as “partial agonists”. Besides, the “half-life (t1/2)” value in series [2] (rat, microsomes, pH 7.4) was 27.894 min; in series [7] (mouse, microsomes, pH 7.4), 8.252 min; in series [9] (human, microsomes, pH 7.4), 15.865 min. Further, in series [3], the “HTR at most efficacious dose (bound)” value is under 15 HTR. Moreover, the “# HTR/20 min at Most Efficacious Dose” value in series [3] (most efficacious dose 0.32 mg/kg) is 6.0 HTR/20 min.
